# Measured values from US4721775A, “Effective peptides related to the luteinizing hormone releasing hormone from L-amino acids” (Board of Regents, The University of Texas System, priority 1985, dated 1988).
# Several values for one entry are separate records, joined by “and”; a condition that tells them apart may be missing. Equal entries are not always repeated. Entries after “also recorded” stand apart in the source; their conditions may differ.
# Key:
# release of FSH [1] = assay: Release of FSH in rats after sc injection; format: in vivo; settings: dose and time as stated in the source
# [2] = relative to LHRH; cited from earlier work
# release of FSH [3] = assay: Release of FSH in rats after sc injection; format: in vivo; settings: release 60 min. after sc injection
# From the text: (§1) The data on the release of LH and FSH in rats by modifications of LHRH with one structural change are in Table II.
# (§2) Exclusive of the salmon-LHRH, only one of the six decapeptides with two structural changes had significant activity.
# release of LH = assay: Release of LH in rats after sc injection; format: in vivo; settings: for LH: release 60 min. after sc injection
# From the text: as §1, §2
# [4] = relative to LHRH; cited from earlier work; remark: listed apart in the source
# ovulation = settings: 250 ng; rats; cited from earlier work
compound,measurement,setting,value
"N=C(N)NCCC[C@H](NC(=O)[C@H](Cc1c[nH]c2ccccc12)NC(=O)CNC(=O)[C@H](Cc1ccc(O)cc1)NC(=O)[C@H](CO)NC(=O)[C@H](Cc1c[nH]c2ccccc12)NC(=O)[C@H](Cc1c[nH]cn1)NC(=O)[C@@H]1CCC(=O)N1)C(=O)N1CCC[C@H]1C(=O)NCC(N)=O [[Trp^7]--LHRH, p-Glu His Trp Ser Tyr Gly Trp Arg Pro Gly-NH2]",release of FSH compared with LHRH,release of FSH [1],as active as LHRH; also recorded: equivalent to LHRH in the release of both LH and FSH
same,agonist activity in vivo,[2],80%
same,FSH,release of FSH [3]; dosage of peptide 300 ng,543 ng/mL
same,FSH,release of FSH [3]; dosage of peptide 3000 ng,1259 ng/mL
same,LH,release of LH; dosage of peptide 300 ng,14.5 ng/mL
same,LH,release of LH; dosage of peptide 3000 ng,115 ± 19 ng/mL and 115 ng/mL
same,release of LH compared with LHRH,"release of LH; sc injection, dose and time as stated in the source",as active as LHRH at two dose levels; also recorded: equivalent to LHRH in the release of both LH and FSH
[3(2-Nal)^3 ]-LHRH,"agonist activity in vitro, as active as LHRH",[4],200%
"[Ala^9 ]-LHRH (QHWSYGLRAG; Gonadoliberin-1; UniProt P01148 24-33, looked up, variant P9A) [literature agonist analog of LHRH]","agonist activity in vitro, as active as LHRH",[4],65%
"[N-Ac-D-2-Nal^1, D-pClPhe^2, D-3-Pal^3, D-Arg^6, Trp^7, D-Ala10 ]-LHRH",antiovulatory activity,ovulation,ca. 90%
[N-MeLeu^7 ]-LHRH,"agonist activity in vitro, as active as LHRH",[4],100%
"[Phe^5 ]-LHRH (QHWSFGLRPG; Gonadoliberin-1; UniProt P01148 24-33, looked up, variant Y5F) [literature agonist analog of LHRH, reference compound]",agonist activity in vivo,[2],64%
